Columns and labels:
Type in all cases: ADME, organism-based
[1] = Half life upon i.v. administration at the dose of 2 mg/kg in rat; parameters: dose 2 mg/kg, route intravenous; settings: in vivo, iv
[2] = Clearance upon i.v. administration at the dose of 2 mg/kg in rat; parameters: dose 2 mg/kg, route intravenous; settings: in vivo, iv
[3] = Volume distribution upon i.v. administration at the dose of 2 mg/kg in rat; parameters: dose 2 mg/kg, route intravenous; settings: in vivo, iv
[4] = Bioavailability in rats when administered 10 mg/kg orally; settings: rat, in vivo, po, read-out: Bioavailabiility
[5] = Peak plasma concentration in rats when administered 10 mg/kg orally; parameters: dose 10 mg/kg, route oral; settings: rat, po

Structure (SMILES) | T1/2 [1] | Cl [2] | Vd [3] | half-life [1] | clearance [2] | Vd ([3]; read-out: Vd) | bioavailability [4] | Cmax [5]
Cc1ccc(S(=O)(=O)N2CC=C(C#Cc3ccccn3)CC2)cc1 | 1.5 h | 29 mL/min/kg | 14.7 L/kg | – | – | – | – | –
C(#Cc1ccccn1)C1=CC(Oc2ccncc2)CCC1 (stereo not drawn) | – | – | – | 0.8 h | 41 mL/min/kg | 1.2 L/kg | – | –
C(#Cc1ccccn1)C1=CC(Oc2cccnc2)CCC1 (stereo not drawn) | – | – | – | 0.3 h | 94 mL/min/kg | 2.2 L/kg | – | –
C(#Cc1ccccn1)C1=CCCCC1 | – | – | – | 3.9 h | 45 mL/min/kg | 9.1 L/kg | – | –
C(#Cc1ccccn1)C1=CCC(Nc2cccnc2)CC1 (stereo not drawn) | – | – | – | 0.5 h | 34 mL/min/kg | 1.4 L/kg | – | –
O=S(=O)(c1ccc(Br)cc1)N1CC=C(C#Cc2ccccn2)CC1 | – | – | – | 1.1 h | 64 mL/min/kg | 3.98 L/kg | 10% | 20 nM
Clc1cncc(OC2C=C(C#Cc3ccccn3)CCC2)c1 (stereo not drawn) | – | – | – | 4.8 h | 32 mL/min/kg | 7.2 L/kg | – | –

— ChEMBL document CHEMBL1140392, “Cyclohexenyl- and dehydropiperidinyl-alkynyl pyridines as potent metabotropic glutamate subtype 5 (mGlu5) receptor antagonists” (Bioorg Med Chem Lett, 2005)
